Source: patent US9963445B2, “Chemical compounds” (SYNGENTA PARTICIPATIONS AG, priority 2013, dated 2018)

Experiments:
Assay type in all cases: in vivo
zea mays [1] = assay: Post-emergence herbicidal activity, glasshouse pot test; design: key: 0 = no damage to plant, 5 = total damage to plant; conditions: Application post-emergence, rate 1000 g/ha, evaluated after 13 days
In short: (§1)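 Test solution: technical active ingredient in acetone/water (50:50) containing 0.5% Tween 20, applied as an aqueous spray to 8-day-old plants. Evaluation at 13 days, 0–5 damage scale.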

Echinochloa crus-galli [2] = assay: as above; design: key: 0 = no damage to plant, 5 = total damage to plant; conditions: Application post-emergence, rate 1000 g/ha, evaluated after 13 days
In short: as §1

Amaranthus retroflexus [3] = assay: as above; design: key: 0 = no damage to plant, 5 = total damage to plant; conditions: Application post-emergence, rate 1000 g/ha, evaluated after 13 days
In short: as §1

Alopecurus myosuroides [4] = assay: as above; design: key: 0 = no damage to plant, 5 = total damage to plant; conditions: Application post-emergence, rate 1000 g/ha, evaluated after 13 days
In short: as §1

Setaria faberi [5] = assay: as above; design: key: 0 = no damage to plant, 5 = total damage to plant; conditions: Application post-emergence, rate 1000 g/ha, evaluated after 13 days
In short: as §1

Abutilon theophrasti [6] = assay: as above; design: key: 0 = no damage to plant, 5 = total damage to plant; conditions: Application post-emergence, rate 1000 g/ha, evaluated after 13 days
In short: as §1

zea mays [7] = assay: Pre-emergence herbicidal activity, glasshouse pot test; conditions: pre-emergence spray, rate 1000 g/ha, evaluated after 13 days, scale 0-5
In short: (§2)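 Damage was rated at 13 days from 0 (none) to 5 (total), in a glasshouse kept at 24/16 °C, 14 h light and 65% humidity with watering twice daily. The aqueous spray of active ingredient in 50:50 acetone/water plus 0.5% Tween 20 was applied to soil one day post-sowing, before emergence.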

Echinochloa crus-galli [8] = assay: as above; conditions: pre-emergence spray, rate 1000 g/ha, evaluated after 13 days, scale 0-5
In short: as §2

Amaranthus retroflexus [9] = assay: as above; conditions: pre-emergence spray, rate 1000 g/ha, evaluated after 13 days, scale 0-5
In short: as §2

Alopecurus myosuroides [10] = assay: as above; conditions: pre-emergence spray, rate 1000 g/ha, evaluated after 13 days, scale 0-5
In short: as §2

Setaria faberi [11] = assay: as above; conditions: pre-emergence spray, rate 1000 g/ha, evaluated after 13 days, scale 0-5
In short: as §2

Abutilon theophrasti [12] = assay: as above; conditions: pre-emergence spray, rate 1000 g/ha, evaluated after 13 days, scale 0-5
In short: as §2

Row | Structure (SMILES) | ZEAMX herbicidal damage score (zea mays [1]) | ECHCG herbicidal damage score (Echinochloa crus-galli [2]) | AMARE herbicidal damage score (Amaranthus retroflexus [3]) | ALOMY herbicidal damage score (Alopecurus myosuroides [4]) | SETFA herbicidal damage score (Setaria faberi [5]) | ABUTH herbicidal damage score (Abutilon theophrasti [6]) | ZEAMX damage score, application pre-emergence (zea mays [7]) | ECHCG damage score, application pre-emergence (Echinochloa crus-galli [8]) | AMARE damage score, application pre-emergence (Amaranthus retroflexus [9]) | ALOMY damage score, application pre-emergence (Alopecurus myosuroides [10]) | SETFA damage score, application pre-emergence (Setaria faberi [11]) | ABUTH damage score, application pre-emergence (Abutilon theophrasti [12])
1 | CCc1cc(N2C(=O)C(Cl)=C(C)C2O)ncc1Br (stereo not drawn) [AF99] | 1 | 5 | 5 | 5 | 4 | 5 | 1 | 2 | 2 | 2 | 1 | 0
2 | CC1=C(Cl)C(=O)N(c2cc(C(C)(C)C#N)ccn2)C1O (stereo not drawn) [AF100] | 4 | 5 | 5 | 5 | 5 | 5 | 3 | 5 | 5 | 4 | 5 | 3
3 | CCOC(=O)c1cnc(N2C(=O)C(Cl)=C(C)C2O)cc1Cl (stereo not drawn) [AF101] | 1 | 3 | 5 | 2 | 5 | 5 | 0 | 0 | 2 | 0 | 0 | 1
4 | CC1=C(Cl)C(=O)N(c2ccc(C(C)(C)C#N)cn2)C1O (stereo not drawn) [AF102] | 5 | 5 | 5 | 5 | 5 | 5 | 3 | 5 | 5 | 3 | 4 | 5
5 | CC1=C(Cl)C(=O)N(c2cc(C(C)C)c(C(=O)NC(C)(C)C)cn2)C1O (stereo not drawn) [AF103] | 3 | 5 | 5 | 4 | 5 | 5 | 3 | 4 | 5 | 4 | 4 | 5
6 | CC1=C(Cl)C(=O)N(c2cc(C)c(-c3ccsc3)cn2)C1O (stereo not drawn) [AF104] | 0 | 5 | 5 | 2 | 5 | 4 | 0 | 1 | 5 | 0 | 1 | 1
7 | CC1=C(Cl)C(=O)N(c2cc(C(F)(F)F)c(-c3nn(C)c4ccccc34)cn2)C1O (stereo not drawn) [AF105] | 0 | 2 | 5 | 3 | 4 | 5 | 0 | 0 | 0 | 0 | 0 | 0
